In ChEMBL document CHEMBL3826923, “Synthesis and biological activity of novel ester derivatives of N(3)-(4-metoxyfumaroyl)-(S)-2,3-diaminopropanoic acid containing amide and keto function as inhibitors of glucosamine-6-phosphate synthase” (Bioorg Med Chem Lett, 2016):

Assays:
Candida albicans = experiment: Antimicrobial activity against Candida albicans ATCC 10231 after 48 hrs by serial two fold dilution method; type: functional; conditions: ATCC 10231, 48 h
Nakaseomyces glabratus = experiment: Antimicrobial activity against Candida glabrata DSM 11226 after 48 hrs by serial two fold dilution method; type: functional; conditions: DSM 11226, 48 h
Staphylococcus aureus = experiment: Antimicrobial activity against Staphylococcus aureus ATCC 29213 after 24 hrs by serial two fold dilution method; type: functional; conditions: ATCC 29213, 24 h
Escherichia coli = experiment: Antimicrobial activity against Escherichia coli PCM 2560 after 24 hrs by serial two fold dilution method; type: functional; conditions: PCM 2560, 24 h
[1] = Inhibition of Candida albicans glucosamine-6-phosphate synthase expressed in Escherichia coli using D-fructose-6-phosphate as substrate after 30 mins

MIC80 (Candida albicans) [µg/mL] | MIC80 (Nakaseomyces glabratus) [µg/mL] | MIC80 (Staphylococcus aureus) [µg/mL] | MIC80 (Escherichia coli) [µg/mL] | IC50 [1] [µM] | SMILES
8 | > 1020 | > 1020 | > 1020 | 82.1 | COC(=O)/C=C/C(=O)NC[C@H](N)C(=O)O[C@@H](C)C(N)=O.Cl
0.5 | 512 | > 1020 | > 1020 | 4.91 | COC(=O)/C=C/C(=O)NC[C@H](N)C(=O)OC(C)C(C)=O.Cl (stereo not given in full)
2 | > 1020 | 512 | > 1020 | 66.6 | COC(=O)/C=C/C(=O)NC[C@H](N)C(=O)OCC(=O)N(C)C.Cl
1 | > 1020 | 1020 | > 1020 | 27 | CNC(=O)COC(=O)[C@@H](N)CNC(=O)/C=C/C(=O)OC.Cl
128 | > 1020 | > 1020 | > 1020 | 202 | COC(=O)/C=C/C(=O)NC[C@H](N)C(=O)OCC(N)=O.Cl
0.25 | 512 | > 1020 | > 1020 | 5.08 | COC(=O)/C=C/C(=O)NC[C@H](N)C(=O)OCC(C)=O.Cl
256 | > 1020 | > 1020 | > 1020 | > 5000 | COC(=O)/C=C/C(=O)NC[C@H](N)C(=O)O[C@@H](C)C(=O)N(C)C.Cl
16 | > 1020 | > 1020 | > 1020 | 199 | CNC(=O)[C@H](C)OC(=O)[C@@H](N)CNC(=O)/C=C/C(=O)OC.Cl
> 1020 | > 1020 | > 1020 | > 1020 | 4.03 | COC(=O)/C=C/C(=O)NC[C@H](N)C(=O)O
0.5 | 512 | > 1020 | > 1020 | 5.17 | COC(=O)/C=C/C(=O)NC[C@H](N)C(=O)OCC(=O)C(C)(C)C.Cl
